Source: patent US7247615B2, “Peptide agonists of prostate-specific antigen and uses therefor” (priority 2001, dated 2007)

Legend:
DCs = test: IL-12 production by peptide-pulsed DCs in the presence of T cells; type: cell-based, human
Procedure: It has been previously shown that the activation of T cells by peptidepulsed DCs is related to the level of IL-12 production by the DCs. Studies were therefore conducted to determine the levels of IL-12 production by DCs pulsed with PSA-3 and PSA-3A peptides in the presence of T cells. […] When DCs pulsed with the PSA3A peptide were incubated with both T cell lines, the DCs incubated with the T-PSA-3A line again produced higher levels of IL-12 than those peptide-pulsed DCs incubated with the T cell line T-PSA-3 (Table 3).

T-PSA-3A cells = test: IFN-γ production by T cell line stimulated with peptide-pulsed DCs (ELISA); type: cell-based, human; conditions: peptide 25 μg/ml
Procedure: (§1) Detection of Cytokines. Supernatant of T cells exposed for 24 h to peptide-pulsed infected DC, rV-PSA infected DC, or rV-PSA-3A infected DC, in IL-2-free medium at various responder: stimulator ratios, were screened for secretion of IFN-γ using an ELISA kit (R & D Systems, Minneapolis, Minn.). The results were calculated as pg/ml. A Cytometric Bead Array (CBA) system (BD PharMingen, San Diego, Calif.) was also used to determine the secretion of multiple cytokines by specific T cell lines. The CBA system uses the fluorescence detection by flow cytometry to measure soluble analytes in a particle-based immunoassay. The BD human Th1/Th2 cytokine CBA Kit was employed to measure IL-2, IL-4, IL-5, IL-10, TNF-α, and IFN-γ protein levels in a single sample. The cytokine capture beads were mixed with PE-conjugated detection antibodies and then incubated with recombinant cytokine standards or test samples to form sandwich complexes. The samples results were generated in graphical and tabular format using BD CBA analysis software. The results were calculated as pg/ml.
Table 2: Production of IFN-γ by a T cell line stimulated with PSA-3 or agonist PSA-3A peptides. The PSA-specific T cell line T-PSA-3A was used as effector cells at IVS-3. T-PSA-3A cells were stimulated with irradiated HLA-A2 positive allogeneic DCs either pulsed with PSA-3 or PSA-3A peptide at a concentration of 25 μg/ml and an effector-to-APC ratio of 10:1. After 24-h culture supernatants were collected and screened for the secretion of IFN-γ. APC=antigen […].

HLA-A2 = target: T1, HLA-A2 (Homo sapiens, UniProt P04439, D140Y/D185E/D98H/E176V/E277Q/G131W/G231S/I119V/I121R/I166T/I218V/L300P/L318F/N151K/N90K/P208A/P217A/Q86G/Q94H/R138H/R169H/T345S); test: Peptide binding to HLA-A2 on T2A2 cells (flow cytometry)
T1 construct: endogenous in cells; host or cells: T2A2 / 174CEM-T2 (T2) transport deletion mutant cell line
Procedure: Single-color flow cytometric analysis. The method for single-color flow cytometric analysis was described previously (F. Guadagni et al., 1990, Cancer Res. 50:6248–6255). Briefly, cells were washed three times with cold Ca^2+ and Mg^2+-free DPBS and then stained for 1 h with mAb against HLA-A2 (A2,69, One Lambda, Inc., Canoga Park, Calif.), using 10 μg of the 1× working dilution per 10^6 cells. Mineral oil plasmacytoma-104E (Cappel/Organon Teknika Corp., West Chester, Pa.) was used as an isotype control. The cells were washed three times and incubated with a 1:100 dilution of fluorescein isothiocyanate (FITC)-labeled goat anti-mouse immunoglobulin (IgG) (Kirkegaard and Perry Laboratories, Gaithersburg, Md.). The cells were immediately analyzed using a Becton Dickinson FACScan equipped with a blue laser with an excitation of […] at 488 nm. Data were gathered from 10,000 live cells, stored and used to generate results.
Peptide Binding to HLA-A2. […] Briefly, 1×10^6 cells in serum-free Iscove's modified Dulbecco's complete medium were incubated with peptides at a concentration of 50 μg/ml in 24 well culture plates at 37° C. in 5% CO2. Flow cytometry for peptide binding was performed using T2 cells and single-color analysis. After cells were washed three times in DPBS, as described above, they were incubated for 1 h with HLA-A2 specific MAb (One Lambda, Inc.) using 10 μg of a 1× working dilution per 10^6 cells. UPC-10 (Cappel/Organon Teknika) was used as isotype control. The cells were washed three times and incubated with 1:100 dilution of FITC-labeled anti-mouse IgG (Becton Dickinson). Analysis was conducted with the FACScan, as described above. Cells were maintained on ice during all cell preparation and staining.
The four analogs were then tested for binding to the HLA-A2 positive T2A2 cells as described in the Examples section. The NCA peptide was previously shown to not bind to HLA-A2, and was used as a negative […] control. Peptides were added to T2A2 cells at concentrations of 0 to 50 μg/ml.

V8T cells = type: cell-based, human
T-PSA-3 cells = test: Cytometric Bead Array cytokine production by peptide-stimulated T cells; type: cell-based, human
Procedure: as §1
The cytokine profile of T cells stimulated with APCs pulsed with either the PSA-3 or the PSA-3A peptide was then analyzed. The T cell line derived using the PSA-3 peptide was used in these studies, and the APCs used were autologous B cells. A Cytometric Bead Array (CBA) assay was used for analysis (see Examples section) using supernatant fluids obtained 24 h after stimulation. FIGS. 6A–6C illustrate […] of the 10 internal standards used for the calibration of the results obtained in this assay. FIGS. 6D–6F show the levels of each of six cytokines produced by T cells stimulated with APCs pulsed with no peptide, PSA-3A peptide, and PSA-3 peptide, respectively. […] The results obtained for IL-5 will be discussed below (Conclusions section).

[1] = T-PSA-3 + peptide-pulsed autologous B cells, 24 h supernatant

In the case of VLSNDVCAQV (SEQ ID NO:3) [PSA-3A], the “IL-12 PRODUCTION” value (DCs; APC DC, T cell line T-PSA-3, peptide 25 μg/ml, 10:1, 24 h, IVS-4) is reported as 6.0 pg/ml/5 × 10^5 DC, the “IL-12 PRODUCTION” value (DCs; APC DC, T cell line T-PSA-3A, peptide 25 μg/ml, 10:1, 24 h, IVS-4) is reported as 27.5 pg/ml/5 × 10^5 DC and the “IL-12 PRODUCTION” value (DCs; no APC, T cell line T-PSA-3, peptide 25 μg/ml, 24 h) is reported as less than 0.6 pg/ml/5 × 10^5 DC. The “IL-12 PRODUCTION” value (DCs; no APC, T cell line T-PSA-3A, peptide 25 μg/ml, 24 h) was less than 0.6 pg/ml/5 × 10^5 DC, the “PRODUCTION OF IFN-γ” value (T-PSA-3A cells; APC DCs, T-PSA-3A T cells present, effector-to-APC 10:1, 24 h, IVS-3) was 566 pg/mL and the “PRODUCTION OF IFN-γ” value (T-PSA-3A cells; APC DCs, no T cell, 24 h) was less than 15 pg/mL. For the same sequence, the “PRODUCTION OF IFN-γ” value (T-PSA-3A cells; no APC, T-PSA-3A T cells present, 24 h) was less than 15 pg/mL, the “Binding to HLA-A2 at lower peptide concentrations” value (HLA-A2; FIG. 1B) was “clearly bound higher levels of HLA-A2 than PSA-3” and the “Binding to HLA-A2 (relative fluorescence, MFI)” value (HLA-A2; peptide 0 to 50 μg/ml, FIG. 1A) was “higher levels than PSA-3”. For the same sequence, the “Production of IFN-γ by V8T” value (V8T cells) was less than 13.0 pg/mL, the “Production of IL-5” value (T-PSA-3 cells; T cells stimulated with PSA-3A as compared to PSA-3 peptide) was “increase” and the “Production of IFN-γ” value (T-PSA-3 cells; [1]) was “greater production”. The “Production of IL-2” value (T-PSA-3 cells; [1]) was “greater production”, the “Production of IL-4” value (T-PSA-3 cells; [1]) was “Low or undetectable levels” and the “Production of IL-10” value (T-PSA-3 cells; [1]) was “Low or undetectable levels”. The “Production of TNF-α” value (T-PSA-3 cells; [1]) was “No TNF-α could be detected”.
